Laboratory results reported in ChEMBL document CHEMBL4316582, “Nitro-Group-Containing Drugs” (J Med Chem, 2019).
pIC50: −log10 of the molar value. Converted amounts (≈) assume the structure as drawn.

What was measured:
[1] = system: Mycobacterium tuberculosis; assay: Antitubercular activity against Mycobacterium tuberculosis; assay type: functional
[2] = system: Mycobacterium tuberculosis; assay: Antitubercular activity against drug-sensitive Mycobacterium tuberculosis; assay type: functional
NCI-H460 [3] = assay: Cytotoxicity against human NCI-H460 cells assessed as reduction in cell viability after 2 hrs by Alamar blue assay; assay type: functional, cell-based; settings: NCI-H460, 2 h
HT-29 [4] = assay: Cytotoxicity against human HT-29 cells assessed as reduction in cell viability after 2 hrs by Alamar blue assay; assay type: functional, cell-based; settings: HT-29, 2 h
HT-29 [5] = assay: Cytotoxicity against human HT-29 cells; assay type: functional, cell-based
SK-OV-3 = assay: Cytotoxicity against human SKOV3 cells; assay type: functional, cell-based
[6] = molecular target: Epidermal growth factor receptor (Homo sapiens, UniProt P00533); assay: Inhibition of erbB1 (unknown origin) using FRET-capable peptide substrate by FRET assay
Chain of Epidermal growth factor receptor (P00533 whole entry): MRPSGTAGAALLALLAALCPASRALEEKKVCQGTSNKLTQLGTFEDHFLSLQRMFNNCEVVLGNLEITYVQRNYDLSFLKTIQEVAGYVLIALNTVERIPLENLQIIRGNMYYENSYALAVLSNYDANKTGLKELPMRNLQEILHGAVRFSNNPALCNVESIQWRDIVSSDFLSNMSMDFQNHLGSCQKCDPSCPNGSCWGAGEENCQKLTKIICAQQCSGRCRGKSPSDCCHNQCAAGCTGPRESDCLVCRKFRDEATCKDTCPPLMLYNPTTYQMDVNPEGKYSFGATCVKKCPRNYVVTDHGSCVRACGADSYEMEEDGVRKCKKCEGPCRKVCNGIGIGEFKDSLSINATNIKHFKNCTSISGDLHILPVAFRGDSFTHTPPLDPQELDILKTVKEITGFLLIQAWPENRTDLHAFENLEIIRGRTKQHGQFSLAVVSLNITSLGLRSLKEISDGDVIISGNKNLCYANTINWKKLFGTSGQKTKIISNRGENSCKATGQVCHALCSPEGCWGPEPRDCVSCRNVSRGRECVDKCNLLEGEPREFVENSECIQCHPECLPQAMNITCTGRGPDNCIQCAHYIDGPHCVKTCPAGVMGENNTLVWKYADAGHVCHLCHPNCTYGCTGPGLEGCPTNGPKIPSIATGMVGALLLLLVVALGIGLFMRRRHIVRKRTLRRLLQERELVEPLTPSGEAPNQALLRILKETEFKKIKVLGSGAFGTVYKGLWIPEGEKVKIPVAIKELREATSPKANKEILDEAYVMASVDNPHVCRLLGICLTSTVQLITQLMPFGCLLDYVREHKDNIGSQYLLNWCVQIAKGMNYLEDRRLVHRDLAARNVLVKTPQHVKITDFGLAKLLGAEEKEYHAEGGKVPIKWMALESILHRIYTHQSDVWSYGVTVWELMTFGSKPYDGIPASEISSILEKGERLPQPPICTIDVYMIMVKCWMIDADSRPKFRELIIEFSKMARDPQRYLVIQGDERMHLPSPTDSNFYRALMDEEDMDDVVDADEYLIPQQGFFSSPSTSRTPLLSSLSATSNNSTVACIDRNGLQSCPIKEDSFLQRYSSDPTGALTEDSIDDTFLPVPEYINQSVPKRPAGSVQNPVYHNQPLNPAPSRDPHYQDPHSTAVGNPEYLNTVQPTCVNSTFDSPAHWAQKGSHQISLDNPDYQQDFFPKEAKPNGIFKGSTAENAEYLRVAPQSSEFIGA

[7] = system: Mycobacterium tuberculosis; assay: Antitubercular activity against Mycobacterium tuberculosis H37Ra after 8 days by visual analysis; assay type: functional; settings: 192 h
Hep 3B2 [8] = assay: Cytotoxicity against human Hep3B cells after 24 hrs under hypoxic condition by MTS assay; assay type: functional, cell-based
Hep 3B2 [9] = assay: Cytotoxicity against human Hep3B cells after 24 hrs by MTS assay; assay type: functional, cell-based
NCI-H460 [10] = assay: Antiproliferative activity against human NCI-H460 cells; assay type: functional, cell-based
NCI-H460 [11] = assay: Cytotoxicity against human NCI-H460 cells assessed as reduction in cell viability after 2 hrs under hypoxic conditions by Alamar blue assay; assay type: functional, cell-based; settings: NCI-H460, 2 h
NCI-H460 [12] = assay: Cytotoxicity against human NCI-H460 cells assessed as reduction in cell viability after 2 hrs under normoxic conditions by Alamar blue assay; assay type: functional, cell-based; settings: NCI-H460, 2 h
NCI-H460 [13] = assay: Antiproliferative activity against human NCI-H460 cells in presence of O2; assay type: functional, cell-based
NCI-H460 [14] = assay: Antiproliferative activity against human NCI-H460 cells in presence of N2; assay type: functional, cell-based
NCI-H460 [15] = assay: Ratio of IC50 for antiproliferative activity against human NCI-H460 cells in presence of O2 to antiproliferative activity against human NCI-H460 cells in presence of N2; assay type: functional
[16] = Cytotoxicity against human MiaPaCa cells assessed as reduction in cell viability after 2 hrs by Alamar blue assay; assay type: functional, cell-based; settings: MIA PaCa-2, 2 h

With `O=[N+]([O-])C1CN2C[C@H](OCc3ccc(OC(F)(F)F)cc3)COC2=N1` (stereo partly drawn) the MIC [1] was less than 2.8 µM and the MIC [2] was 0.039 to 0.531 µg/mL (≈ 0.108 to 1.47 µM).
With `CC#Cc1c(OC)ccc2c(C(=O)c3cc(OC)c(OC)c(OC)c3)nn(C[N+](C)(C)Cc3c(CC)nc([N+](=O)[O-])n3C)c12` the pIC50 (NCI-H460 [3]) was 7.38 and the pIC50 (HT-29 [4]) was 8.05.
`COC(=O)c1ccc2c3c(cc([N+](=O)[O-])c2c1)N(C(=O)c1cc2cc(OCCN(C)C)ccc2[nH]1)CC3CCl` (stereo not drawn) showed a pIC50 (HT-29 [5]) of 6.49 and a pIC50 (SK-OV-3) of 6.36.
Work on `Cc1cc(COP(N)(=O)N(CCCl)CCCl)ccc1[N+](=O)[O-]` (stereo not drawn) yielded a pIC50 (SK-OV-3) of 5.48.
Molecule `Cn1c(C[N+](C)(C)C/C=C/C(=O)Nc2ccc3ncnc(Nc4cccc(Br)c4)c3c2)ccc1[N+](=O)[O-]` has a pIC50 [6] of 9.25 to 9.66.
`C[N+](C)(C/C=C/C(=O)Nc1ccc2ncnc(Nc3cccc(Br)c3)c2c1)Cc1ccc([N+](=O)[O-])cc1` showed a pIC50 [6] of 9.25 to 9.66.
With `COc1ccc(CNC(=O)c2ccc([N+](=O)[O-])o2)cc1OC` the MIC [7] was 0.2 µM (≈ 0.0613 µg/mL).
In the case of `CC#Cc1c(OC)ccc2c(C(=O)c3cc(OC)c(OC)c(OC)c3)nn(C[N+](C)(C)Cc3c(-c4ccc(Br)o4)nc([N+](=O)[O-])n3C)c12`, the pIC50 (NCI-H460 [3]) was 7.74 and the pIC50 (HT-29 [4]) was 7.77.
Molecule `COc1ccc(C[C@@H](C)[C@@H](C)Cc2ccc(OC)c(OCCOCCOCCOCCn3cnc([N+](=O)[O-])c3)c2)cc1OC` has a pIC50 (Hep 3B2 [8]) of 4.19 and a pIC50 (Hep 3B2 [9]) of 4.89.
Molecule `CC(=O)O[C@H]1C(=O)[C@@]2(C)[C@H]([C@H](OC(=O)c3ccccc3)[C@]3(O)C[C@H](OC(=O)[C@H](OC(=O)N(C)CCN(C)C(=O)OCc4ccc([N+](=O)[O-])c(Oc5ccc6ncccc6c5)c4)[C@@H](NC(=O)c4ccccc4)c4ccccc4)C(C)=C1C3(C)C)[C@]1(OC(C)=O)CO[C@@H]1C[C@@H]2O` has a pIC50 (NCI-H460 [10]) of 7.52.
Molecule `COc1cccc2c1C(=O)c1c(O)c3c(c(O)c1C2=O)C[C@@](O)(C(C)=O)C[C@@H]3O[C@H]1C[C@H](N(COCCn2ccnc2[N+](=O)[O-])COCCn2ccnc2[N+](=O)[O-])[C@H](O)[C@H](C)O1` has a pIC50 (NCI-H460 [11]) of 7.30 and a pIC50 (NCI-H460 [12]) of 4.70.
`COc1cccc2c1C(=O)c1c(O)c3c(c(O)c1C2=O)C[C@@](O)(C(C)=O)C[C@@H]3O[C@H]1C[C@H](n2ccnc2[N+](=O)[O-])[C@H](O)[C@H](C)O1` gave a pIC50 (NCI-H460 [11]) of 7.92 and a pIC50 (NCI-H460 [12]) of 5.64.
`CC(=O)O[C@H]1C(=O)[C@@]2(C)[C@H]([C@H](OC(=O)c3ccccc3)[C@]3(O)C[C@H](OC(=O)[C@H](OC(=O)N(C)CCN(C)C(=O)OC(C)c4ccc([N+](=O)[O-])c(Oc5ccc6ncccc6c5)c4)[C@@H](NC(=O)c4ccccc4)c4ccccc4)C(C)=C1C3(C)C)[C@]1(OC(C)=O)CO[C@@H]1C[C@@H]2O` (stereo partly drawn) gave a pIC50 (NCI-H460 [10]) of 7.52.
`COc1ccc(C[C@@H](C)[C@@H](C)Cc2ccc(OC)c(OCCOCCOCCOCCn3ccnc3[N+](=O)[O-])c2)cc1OC` gave a pIC50 (Hep 3B2 [8]) of 4.27 and a pIC50 (Hep 3B2 [9]) of 4.90.
`CC#Cc1c(OC)ccc2c(C(=O)c3cc(OC)c(OC)c(OC)c3)nn(C[N+](C)(C)Cc3c(CCC)nc([N+](=O)[O-])n3C)c12` showed a pIC50 (NCI-H460 [3]) of 7.40 and a pIC50 (HT-29 [4]) of 7.74.
With `C[N+](C)(C/C=C/C(=O)Nc1ccc2ncnc(Nc3cccc(Br)c3)c2c1)Cc1ccccc1[N+](=O)[O-]` the pIC50 [6] was 9.25 to 9.66.
`COc1ccc(C[C@@H](C)[C@@H](C)Cc2ccc(OCCOCCOCCOCCn3cnc([N+](=O)[O-])c3)c(OC)c2)cc1OC` gave a pIC50 (Hep 3B2 [8]) of 4.28 and a pIC50 (Hep 3B2 [9]) of 4.90.
With `NC(=O)c1ccnc(N2CC2)c1[N+](=O)[O-]` the pIC50 (NCI-H460 [13]) was 3.85, the pIC50 (NCI-H460 [14]) was 5.57 and the “Ratio IC50” value (NCI-H460 [15]) was 52.5.
Molecule `CC(=O)c1ccc2c([N+](=O)[O-])cc3c(c2c1)C(CCl)CN3C(=O)c1cc2cc(OCCN(C)C)ccc2[nH]1` (stereo not drawn) has a pIC50 (HT-29 [5]) of 6.82 and a pIC50 (SK-OV-3) of 6.68.
For `CC#Cc1c(OC)ccc2c(C(=O)c3cc(OC)c(OC)c(OC)c3)nn(C[N+](C)(C)Cc3c(Br)nc([N+](=O)[O-])n3C)c12`, the pIC50 (NCI-H460 [3]) was 7.55, the pIC50 [16] was 7.55 and the pIC50 (HT-29 [4]) was 8.00.
For `[O-]/[N+](O)=C1/CN2C[C@H](OCc3ccc(OC(F)(F)F)cc3)COC2=N1`, the MIC [1] was less than 2.8 µM and the MIC [2] was 0.039 to 0.531 µg/mL (≈ 0.108 to 1.47 µM).
For `Cn1ncc([N+](=O)[O-])c1C[N+](C)(C)C/C=C/C(=O)Nc1ccc2ncnc(Nc3cccc(Br)c3)c2c1`, the pIC50 [6] was 9.25 to 9.66.
With `NC(=O)c1cc(N2CC2)ncc1[N+](=O)[O-]` the pIC50 (NCI-H460 [13]) was 4.71 and the pIC50 (NCI-H460 [14]) was 5.96.
For `Cn1cnc([N+](=O)[O-])c1C[N+](C)(C)C/C=C/C(=O)Nc1ccc2ncnc(Nc3cccc(Br)c3)c2c1`, the pIC50 [6] was 9.25 to 9.66.
`FC(F)(F)Oc1ccc(CO[C@@H]2COc3nccn3C2)cc1` showed an MIC [1] of less than 2.8 µM and an MIC [2] of 0.039 to 0.531 µg/mL (≈ 0.124 to 1.69 µM).
